Test results reported in US20240053330A1, “MODULAR KINETICALLY-CONTROLLED FUNCTIONAL RNA CONSTRUCTS AND RELATED COMPOSITIONS, SYSTEMS, AND METHODS” (UNIVERSITY OF WASHINGTON, priority 2021, published 2024).

Tested on: J306 target with alternative PAM sequences
Assay: CRISPRa at alternative PAM sites of the J3-J23117-mRFP1 reporter
Format: cell-based, E. coli
Source text: FIGS. 31A and 31B illustrate that dxCas9(3.7) expands the range of targetable scRNA target sites by recognizing alternative PAMs. […] Reporter plasmids were constructed by replacing the AGG PAM site for the J306 target in the J3-J23117-mRFP1 reporter with alternative PAM sequences that have been previously reported to be recognized by dxCas9(3.7) in human cells (Hu, J. H. et al. Evolved Cas9 variants with broad PAM compatibility and high DNA specificity. Nature 556, 57-63 (2018), incorporated herein by reference in its entirety). The (−) sign indicates a control expressing the original reporter with the AGG PAM and the CRISPRa components with Sp-dCas9, the activation domain and no scRNA.
Considering there is a limited number of genes with an appropriate NGG PAM site at precisely the optimal position upstream of the promoter, it was attempted to expand the scope of targetable PAM sites for CRISPRa. A recently characterized dCas9 variant, dxCas9(3.7), that has improved activity at a variety of non-NGG PAM sites including NGN, GAA, GAT, and CAA6 was used. […] PAM sites than NGG PAM sites (not shown), Accounting for the fact that dCas9 has some activity at non-NGG sites6 (FIG. 31), there are still on average ˜2.2-fold more dxCas9(3.7)-compatible PAM sites than dCas9-compatible PAM sites (not shown). […]

Sp-dCas9: S. pyogenes dCas9
CRISPRa activity (in words) (non-NGG PAM sites AGA, CGA, GGA, GGC, GGT, TGA): moderate CRISPRa activity | activation of AGT PAM site shifted into the peak activation range (in words) (reporter with five bases inserted): ineffective
